Measurements reported in patent US20170239239A1, “Method for Inducing a Sustained Immune Response” (Immune Therapeutics Inc., priority 2016, published 2017).

Assays:
[1] = system: advanced pancreatic cancer; details: historical controls; cited from earlier work
IBS patients = assay: Open-label study of PTI-901 in 42 IBS patients; type: in vivo, human
Experimental: Forty-two IBS patients participated in an open-label study. Participants received 0.5 mg PTI-901/day for 4 weeks and were evaluated during baseline, during treatment, and at 4-week follow-up. Patients recorded degree of abdominal pain, stool urgency, consistency, and frequency. Primary outcomes were number of pain-free days and overall symptom relief, evaluated by a global assessment score. Data were analyzed per protocol. Global assessment improved in 76% of 42 patients. During treatment, the mean weekly number of pain-free days increased from 0.5+/−1 to 1.25+/−2.14 (P=0.011).

SMILES	Clinical benefit response [1] [%]	Global assessment improved (IBS patients; 0.5 mg/day for 4 weeks, of 42 patients) [%]	mean weekly number of pain-free days (IBS patients; during treatment, from 0.5+/−1, P=0.011)	adverse reactions (IBS patients; human, in vivo)
Nc1ccn([C@@H]2O[C@H](CO)[C@@H](O)C2(F)F)c(=O)n1 [gemcitabine]	23.8	–	–	–
O=c1[nH]cc(F)c(=O)[nH]1 [5-fluorouracil (5-FU), 5-fluorouracil]	4.8	–	–	–
Cl.O=C1CC[C@@]2(O)[C@H]3Cc4ccc(O)c5c4[C@@]2(CCN3CC2CC2)[C@H]1O5 [PTI-901]	–	76	1.25+/−2.14	no significant adverse reactions
